As a reminder, the Km is the concentration of substrate that gives half-maximal velocity.

Data on three molecules can be found in US11591631B2, “Glucose monitoring method and glucose sensor” (TOYOBO CO., LTD., priority 2017, dated 2023).

Series [1] relates to FADGDH GDH-3, SEQ ID No. 3 (SEQ ID No. 1 of JP4649993B). Put plainly: Michaelis constant of GDH-3 in aqueous system (DCPIP/PMS, Lineweaver-Burk plot). Particulars: pH 6.5, 37° C., Lineweaver-Burk at 30, 50, 100, 200 mM, read-out: Michaelis constant (Km) for glucose. The series is classed as biochemical, Mucor prainii. How it is done:
(§1) In the present invention, the activity of glucose dehydrogenase is defined using, as 1 unit (U), the amount of enzyme that reduces 1 micromole of DCPIP per minute in the presence of a substrate according to a method using a reagent having the following formulation.
(§2) 50 mM PIPES buffer (pH: 6.5; containing 0.1% TritonX-100)
(§3) 2 mM 2,5-dichlorophenolindophenol (DCPIP) solution
(§4) First, 3 ml of reaction reagent is pre-warmed at 37° C. for 5 minutes. 0.1 ml of GDH solution is added thereto, and the resulting mixture is gently mixed. Then, the change in absorbance at 600 nm is record for 5 minutes by a spectrophotometer adjusted at 37° C. with water as a control, and the change in absorbance per minute (ΔODTEST) is measured from the straight line portion. In a blind test, a solvent that dissolves GDH is added to the reagent mixture, instead of the GDH solution, and the change in absorbance per minute (ΔODBLANK) is similarly measured. From these values, GDH activity is determined according to the following formula. […] Activity (U/ml)={−(ΔODTEST−ΔODBLANK)×3.0×dilution magnification}/{16.3×0.1×1.0} […]

Series [2] concerns FADGDH GDH-2, SEQ ID No. 2 (SEQ ID No. 1 of JP2013-116102A). The series can be described thus: Michaelis constant of GDH-2 in aqueous system (DCPIP/PMS, Lineweaver-Burk plot). The series is classed as biochemical. Particulars: pH 6.5, 37° C., Lineweaver-Burk at 30, 50, 100, 200 mM, read-out: Michaelis constant (Km) for glucose. As to the method:
as §1, §2, §3, §4

Series [3] deals with FADGDH GDH-4, SEQ ID No. 4 (SEQ ID No. 1 of JP2015-146773A). The series can be described thus: Michaelis constant of GDH-4 in aqueous system (DCPIP/PMS, Lineweaver-Burk plot). Particulars: pH 6.5, 37° C. It counts as biochemical. As to the method: as §1, §2, §3, §4
Series [4] concerns FADGDH enzymes of Table 1 (GDH-1 to GDH-4). Put plainly: Km for D-glucose of the enzymes listed in Table 1. It counts as biochemical. Particulars: read-out: Km for D-glucose; range over the enzymes listed in Table 1. How it is done: as §1
First, 3 ml of reaction reagent is pre-warmed at 37° C. for 5 minutes. 0.1 ml of GDH solution is added thereto, and the resulting mixture is gently mixed. Then, the change in absorbance at 600 nm is record for 5 minutes by a spectrophotometer adjusted at 37° C. with water as a control, and the change in absorbance per minute (ΔODTEST) is measured from the straight line portion. In a blind test, a solvent that dissolves GDH is added to the reagent mixture, instead of the GDH solution, and the change in absorbance per minute (ΔODBLANK) is similarly measured. From these values, GDH activity is determined according to the following formula. […] Activity (U/ml)={−(ΔODTEST−ΔODBLANK)×3.0×dilution magnification}/{16.3×0.1×1.0}
GDH-3 is obtained by genetically engineering and expressing GDH having an amino acid sequence of SEQ ID No. 3 (the amino acid sequence represented by SEQ ID No. 1 of JP4649993B) using the Cryptococcus sp. S-2 D11 strain (FERM BP-11482) described in JP5588578B. […]

Series [5] concerns modified FADGDH GDH-5, random mutant of FADGDH of SEQ ID No. 5. The series can be described thus: Michaelis constant of GDH-5 in aqueous system (DCPIP/PMS, Lineweaver-Burk plot). The series is classed as biochemical. Particulars: pH 6.5, 37° C., Lineweaver-Burk at 30, 50, 100, 200 mM, read-out: Michaelis constant (Km) for glucose. How it is done:
as §1, §2, §3, §4

The test system of series [6] is modified FADGDH GDH-6, random mutant of FADGDH of SEQ ID No. 5. The series can be described thus: Michaelis constant of GDH-6 in aqueous system (DCPIP/PMS, Lineweaver-Burk plot). The series is classed as biochemical. Particulars: pH 6.5, 37° C., Lineweaver-Burk at 30, 50, 100, 200 mM, read-out: Michaelis constant (Km) for glucose. How it is done:
as §1, §2, §3, §4

Substrate in series [7]: OC[C@H]1OC(O)[C@H](O)[C@@H](O)[C@@H]1O
The series can be described thus: purified protein, by the assay type. Particulars: other: pH 6.5, 37° C., aqueous system, Lineweaver-Burk at 30, 50, 100, 200 mM.

Substrate in series [8]: OC1OC[C@@H](O)[C@H](O)[C@H]1O
Put plainly: purified protein, by the assay type. Particulars: other: pH 6.5, 37° C., aqueous system, Lineweaver-Burk.

Read-outs that look alike come from different tables or passages of the source.

In the case of `OC[C@H]1OC(O)[C@H](O)[C@@H](O)[C@@H]1O` (stereo partly drawn) [D-glucose], the Km is 31 mM in series [1]; 16 mM in series [2]; 14 mM in series [3] (Lineweaver-Burk at 30, 50, 100, 200 mM, read-out: Michaelis constant (Km) for glucose); 14 to 82 mM in series [4]; 80 mM in series [5]; 82 mM in series [6].

With `OC1OC[C@@H](O)[C@H](O)[C@H]1O` (stereo partly drawn) [D-xylose], in series [3] (Lineweaver-Burk, read-out: Michaelis constant (Km) for xylose), the Km is 82 mM.

B1: FADGDH GDH-1, SEQ ID No. 1 (encoded by SEQ ID No. 8 of JP527482B) (Aspergillus oryzae) (protein)
chain: MKNTTTYDYIVVGGGTSGLVVANRLSENPDVSVLLLEAGASVFNNPDVTNANGYGLAFGSAIDWQYQSINQSYAGGKQQVLRAGKALGGTSTINGMAYTRAEDVQIDVWQKLGNEGWTWKDLLPYYLKSENLTAPTSSQVAAGAAYNPAVNGKEGPLKVGWSGSLASGNLSVALNRTFQAAGVPWVEDVNGGKMRGFNIYPSTLDVDLNVREDAARAYYFPYDDRKNLHLLENTTANRLFWKNGSAEEAIADGVEITSADGKVTRVHAKKEVIISAGALRSPLILELSGVGNPTILKKNNITPRVDLPTVGENLQDQFNNGMAGEGYGVLAGASTVTYPSISDVFGNETDSIVASLRSQLSDYAAATVKVSNGHMKQEDLERLYQLQFDLIVKDKVPIAEILFHPGGGNAVSSEFWGLLPFARGNIHISSNDPTAPAAINPNYFMFEWDGKSQAGIAKYIRKILRSAPLNKLIAKETKPGLSEIPATAADEKWVEWLKANYRSNFHPVGTAAMMPRSIGGVVDNRLRVYGTSNVRVVDASVLPFQVCGHLVSTLYAVAERASDLIKEDAKSA
For B1, the Km in series [7] amounted to 68 mM; in series [8] it was 39 mM.
